# Data as given in US4045298A, “Antibiotic XK-62-2 and process for production thereof” (priority 1972, dated 1977).
# Entries after “also recorded” stand apart in the source; their conditions may differ.
# Tests used:
# Solubility = assay type: physicochemical
# [1] = test system: Bacillus subtilis No. 10707; experiment: Activity (unit/mg) of isolated preparations; paper disk method using an agar plate; assay type: cell-based
# Experimental: (§1) After the completion of fermentation, the culture liquor is adjusted to a pH of 2.0 with 12N sulfuric acid and stirred for 30 minutes. Then, about 10 kg of a filter aid, Radiolite No. 600 (product of Showa Kagaku Kogyo Co., Ltd., Japan) is added thereto and the microbial cells are removed by filtration. The filtrate is adjusted to a pH of 8.0 with 6N sodium hydroxide and passed through a column packed with about 50 l of a cation exchange resin, Amberlite IRC-50 (ammonia form). The active substance is adsorbed on the resin and the eluate is discarded. After washing the resin with water, the active substance is eluted out with 1N aqueous ammonia.
# Active fractions are combined and concentrated in vacuo to about 5 l. The concentrate is then adjusted to a pH of 8.0 with 6N sulfuric acid and passed through a column packed with 1 l of an anion exchange resin, Dowex 1×2 (OH^- form). The column is washed with about 5 l of water and the effluent and the washings containing active substance are combined and are concentrated to 1/15 by volume. […] The resultant precipitate is removed by filtration and the filtrate is concentrated to 500 ml. The concentrate is adjusted to a pH of 4.5 with 6N sulfuric acid and 2.5 l of methanol is added thereto. […] The precipitate is separated by filtration and washed with methanol.
# as §1, with “of” for “of a filter aid,”, “(trade name)” for “(product of Showa Kagaku Kogyo Co., Ltd., Japan)”, “The” for “The active substance is adsorbed on the resin and the”
# [2] = test system: specific enzyme system which inactivates gentamicin C1a or kanamycin by acetylating; assay type: biochemical, Pseudomonas aeruginosa; details: acetylating enzyme of KY 8510 and 8516 strains
# Proteus rettgeri Booth = experiment: Minimum inhibitory concentration by agar dilution method; assay type: cell-based; details: Providencia rettgeri, read-out: Minimum inhibitory concentration
# Source text: (§2) The comparative in vitro activities of these antibiotics against various microorganisms of the genus Proteus are shown in the following Table 6.
# (§3) Minimum inhibitory concentration
# (§4) (γ/ml : by agar dilution method)
# [3] = test system: Proteus mirabilis Finland 9; experiment: as above; assay type: cell-based; details: FINLAND9, read-out: Minimum inhibitory concentration
# Source text: as §2, §3, §4
# [4] = test system: Proteus vulgaris Abbott JJ; experiment: as above; assay type: cell-based; details: read-out: Minimum inhibitory concentration
# Source text: as §2, §3, §4
# [5] = test system: Proteus mirabilis No. 825; experiment: as above; assay type: cell-based; details: NO.825, read-out: Minimum inhibitory concentration
# Source text: as §2, §3, §4
# Proteus mirabilis No. 39 = experiment: as above; assay type: cell-based; details: NO.39, read-out: Minimum inhibitory concentration
# Source text: as §2, §3, §4
# [6] = test system: Proteus rettgeri Hambrook; experiment: as above; assay type: cell-based; details: Providencia rettgeri, read-out: Minimum inhibitory concentration
# Source text: as §2, §3, §4
# Proteus morganii Jenkins = experiment: as above; assay type: cell-based; details: Morganella morganii, read-out: Minimum inhibitory concentration
# Source text: as §2, §3, §4
# [7] = test system: Pseudomonas aeruginosa KY 8520; experiment: as above; assay type: cell-based; details: KY8520, clinical isolate, Table 7
# Source text: as §3, §4
# [8] = test system: Pseudomonas aeruginosa KY 8512; experiment: as above; assay type: cell-based; details: KY8512, clinical isolate, Table 7
# Source text: as §3, §4
# [9] = test system: Pseudomonas aeruginosa KY 8562; experiment: as above; assay type: cell-based; details: KY8562, clinical isolate, Table 7
# Source text: as §3, §4
# [10] = test system: Pseudomonas aeruginosa KY 8511; experiment: as above; assay type: cell-based; details: KY8511, clinical isolate, Table 7
# Source text: as §3, §4
# [11] = test system: Pseudomonas aeruginosa KY 8516; experiment: as above; assay type: cell-based; details: Pseudomonas aeruginosa, KY8516; agar dilution; clinical isolate; Table 7
# Source text: as §3, §4
# [12] = test system: Pseudomonas aeruginosa KY 8515; experiment: as above; assay type: cell-based; details: KY8515, clinical isolate, Table 7
# Source text: as §3, §4
# [13] = test system: Pseudomonas aeruginosa KY 8514; experiment: as above; assay type: cell-based; details: KY8514, clinical isolate, Table 7
# Source text: as §3, §4
# [14] = test system: Pseudomonas aeruginosa KY 4276; experiment: as above; assay type: cell-based; details: KY4276, clinical isolate, Table 7
# Source text: as §3, §4
# [15] = test system: Pseudomonas aeruginosa KY 8510; experiment: as above; assay type: cell-based; details: Pseudomonas aeruginosa, KY8510; agar dilution; clinical isolate; Table 7
# Source text: as §3, §4
# [16] = test system: Proteus vulgaris ATCC 6897; experiment: as above; assay type: cell-based; details: ATCC6897, read-out: Minimum inhibitory concentration
# Source text: Antibacterial spectra of XK-62-2 by agar
# as §2, §3, §4
# [17] = Example 2, free base, Mm-628 ATCC 21827
# [18] = Example 6, free base, Micromonospora purpurea ATCC 15835
# [19] = Example 7, free base, Micromonospora echinospora ATCC 15837 NRRL 2985
# [20] = Example 7, free base, Micromonospora echinospora var. ferruginea NRRL 2995
# [21] = Example 7, free base, Micromonospora echinospora var. pallida NRRL 2996
Compound,MIC (Proteus rettgeri Booth) [µg/mL],MIC [3] [µg/mL],MIC [4] [µg/mL],MIC [5] [µg/mL],MIC (Proteus mirabilis No. 39) [µg/mL],MIC [6] [µg/mL],MIC (Proteus morganii Jenkins) [µg/mL],MIC [7] [µg/mL],MIC [8] [µg/mL],MIC [9] [µg/mL],MIC [10] [µg/mL],MIC [11] [µg/mL],MIC [12] [µg/mL],MIC [13] [µg/mL],MIC [14] [µg/mL],MIC [15] [µg/mL],MIC [16] [µg/mL],"Activity [1, 17] [unit/mg]","Activity [1, 18] [unit/mg]","Activity [1, 19] [unit/mg]",further results
CNC[C@@H]1CC[C@@H](N)[C@@H](O[C@H]2[C@H](O)[C@@H](O[C@H]3OC[C@](C)(O)[C@H](NC)[C@H]3O)[C@H](N)C[C@@H]2N)O1 [sulfate of XK-62-2],,,,,,,,,,,,,,,,,,,,,"Solubility in acetone (Solubility; acetone): insoluble; Solubility in methanol (Solubility; methanol): poorly soluble; also recorded: insoluble; Solubility in water (Solubility; water): very soluble; Activity ([1]; Example 4, sulfate): 792 unit/mg"
NC[C@H]1O[C@H](O[C@H]2[C@H](O)[C@@H](O[C@H]3O[C@H](CO)[C@@H](O)[C@H](N)[C@H]3O)[C@H](N)C[C@@H]2N)[C@H](O)[C@@H](O)[C@@H]1O [kanamycin],0.08,0.04,0.16,0.04,0.33,0.08,0.16,104,3.3,167,13,26,416,208,1.63,13,0.34,,,,Inactivation by acetylation (6'-NH2) [2]: inactivates
"CN[C@@H]1[C@@H](O)[C@@H](O[C@@H]2[C@@H](O)[C@H](O[C@H]3O[C@H]([C@@H](C)N)CC[C@H]3N)[C@@H](N)C[C@H]2N)OC[C@]1(C)O [gentamicin C2, reference compound]",,,,,,,,,,,,,,,,,,925,880,845,"Activity [1, 20]: 853 unit/mg; Activity [1, 21]: 859 unit/mg"
"CN[C@@H]1[C@@H](O)[C@@H](O[C@@H]2[C@@H](O)[C@H](O[C@H]3O[C@H]([C@@H](C)NC)CC[C@H]3N)[C@@H](N)C[C@H]2N)OC[C@]1(C)O [gentamicin C1, reference compound]",,,,,,,,,,,,,,,,,,880,821,906,"Activity [1, 20]: 830 unit/mg; Activity [1, 21]: 940 unit/mg"
[H]/N=C(/N)N[C@H]1[C@H](O)[C@@H](O)[C@H](O[C@@H]2O[C@@H](C)[C@](O)(C=O)[C@H]2O[C@@H]2O[C@@H](CO)[C@H](O)[C@@H](O)[C@@H]2NC)[C@@H](N/C(N)=N\[H])[C@@H]1O [streptomycin],> 40,> 40,> 40,> 40,> 40,> 40,> 40,5.2,42,156,> 2500,0.65,624,156,2.6,0.65,> 40,,,,
